Test results published in ChEMBL document CHEMBL1139682, “Synthesis and biological evaluation of technetium-99m-labeled deoxyglucose derivatives as imaging agents for tumor” (Bioorg Med Chem Lett, 2006).

Experiments:
[1] = Biodistribution in blood of TA2 mouse bearing MA891 xenograft after 30 mins; type: ADME, organism-based; conditions: read-out: Drug uptake
[2] = Biodistribution in liver of TA2 mouse bearing MA891 xenograft after 30 mins; type: ADME, organism-based; conditions: read-out: Drug uptake
[3] = Biodistribution in lung of TA2 mouse bearing MA891 xenograft after 30 mins; type: ADME, organism-based; conditions: read-out: Drug uptake
[4] = Biodistribution in stomach of TA2 mouse bearing MA891 xenograft after 30 mins; type: ADME, organism-based; conditions: read-out: Drug uptake
[5] = Biodistribution in spleen of TA2 mouse bearing MA891 xenograft after 30 mins; type: ADME, organism-based; conditions: read-out: Drug uptake
[6] = Biodistribution in kidney of TA2 mouse bearing MA891 xenograft after 30 mins; type: ADME, organism-based; conditions: read-out: Drug uptake
[7] = Biodistribution in intestine of TA2 mouse bearing MA891 xenograft after 30 mins; type: ADME, organism-based; conditions: read-out: Drug uptake
[8] = Biodistribution in muscle of TA2 mouse bearing MA891 xenograft after 30 mins; type: ADME, organism-based, Muscle tissue; conditions: read-out: Drug uptake
[9] = Biodistribution in tumor of TA2 mouse bearing MA891 xenograft after 30 mins; type: ADME, organism-based; conditions: read-out: Drug uptake
[10] = Biodistribution in brain of TA2 mouse bearing MA891 xenograft after 30 mins; type: ADME, organism-based; conditions: read-out: Drug uptake
[11] = Biodistribution in heart of TA2 mouse bearing MA891 xenograft after 30 mins; type: ADME, organism-based; conditions: read-out: Drug uptake
[12] = Ratio of uptake in tumor to […] of TA2 mouse bearing MA891 xenograft after 30 mins; type: ADME; conditions: in vivo, 0.5 h
[13] = Ratio of uptake in tumor to muscle of TA2 mouse bearing MA891 xenograft after 30 mins; type: ADME; conditions: in vivo, 0.5 h
[14] = Biodistribution in blood of TA2 mouse bearing MA891 xenograft after 2 hrs; type: ADME, organism-based; conditions: read-out: Drug uptake
[15] = Biodistribution in lung of TA2 mouse bearing MA891 xenograft after 2 hrs; type: ADME, organism-based; conditions: read-out: Drug uptake
[16] = Biodistribution in stomach of TA2 mouse bearing MA891 xenograft after 2 hrs; type: ADME, organism-based; conditions: read-out: Drug uptake
[17] = Biodistribution in spleen of TA2 mouse bearing MA891 xenograft after 2 hrs; type: ADME, organism-based; conditions: read-out: Drug uptake
[18] = Biodistribution in kidney of TA2 mouse bearing MA891 xenograft after 2 hrs; type: ADME, organism-based; conditions: read-out: Drug uptake
[19] = Biodistribution in intestine of TA2 mouse bearing MA891 xenograft after 2 hrs; type: ADME, organism-based; conditions: read-out: Drug uptake
[20] = Biodistribution in muscle of TA2 mouse bearing MA891 xenograft after 2 hrs; type: ADME, organism-based, Muscle tissue; conditions: read-out: Drug uptake
[21] = Biodistribution in tumor of TA2 mouse bearing MA891 xenograft after 2 hrs; type: ADME, organism-based; conditions: read-out: Drug uptake
[22] = Biodistribution in brain of TA2 mouse bearing MA891 xenograft after 2 hrs; type: ADME, organism-based; conditions: read-out: Drug uptake
[23] = Biodistribution in heart of TA2 mouse bearing MA891 xenograft after 2 hrs; type: ADME, organism-based; conditions: read-out: Drug uptake
[24] = Ratio of uptake in tumor to blood of TA2 mouse bearing MA891 xenograft after 2 hrs; type: ADME
[25] = Ratio of uptake in tumor to muscle of TA2 mouse bearing MA891 xenograft after 2 hrs; type: ADME; conditions: in vivo
[26] = Biodistribution in blood of TA2 mouse bearing MA891 xenograft after 4 hrs; type: ADME, organism-based; conditions: read-out: Drug uptake
[27] = Biodistribution in lung of TA2 mouse bearing MA891 xenograft after 4 hrs; type: ADME, organism-based; conditions: read-out: Drug uptake
[28] = Biodistribution in liver of TA2 mouse bearing MA891 xenograft after 4 hrs; type: ADME, organism-based; conditions: read-out: Drug uptake
[29] = Biodistribution in stomach of TA2 mouse bearing MA891 xenograft after 4 hrs; type: ADME, organism-based; conditions: read-out: Drug uptake
[30] = Biodistribution in spleen of TA2 mouse bearing MA891 xenograft after 4 hrs; type: ADME, organism-based; conditions: read-out: Drug uptake
[31] = Biodistribution in kidney of TA2 mouse bearing MA891 xenograft after 4 hrs; type: ADME, organism-based; conditions: read-out: Drug uptake
[32] = Biodistribution in intestine of TA2 mouse bearing MA891 xenograft after 4 hrs; type: ADME, organism-based; conditions: read-out: Drug uptake
[33] = Biodistribution in muscle of TA2 mouse bearing MA891 xenograft after 4 hrs; type: ADME, organism-based, Muscle tissue; conditions: read-out: Drug uptake
[34] = Biodistribution in tumor of TA2 mouse bearing MA891 xenograft after 4 hrs; type: ADME, organism-based; conditions: read-out: Drug uptake
[35] = Biodistribution in brain of TA2 mouse bearing MA891 xenograft after 4 hrs; type: ADME, organism-based; conditions: read-out: Drug uptake
[36] = Biodistribution in heart of TA2 mouse bearing MA891 xenograft after 4 hrs; type: ADME, organism-based; conditions: read-out: Drug uptake
[37] = Ratio of uptake in tumor to […] of TA2 mouse bearing MA891 xenograft after 4 hrs; type: ADME; conditions: in vivo
[38] = Ratio of uptake in tumor to muscle of TA2 mouse bearing MA891 xenograft after 4 hrs; type: ADME; conditions: in vivo
[39] = Biodistribution in liver of TA2 mouse bearing MA891 xenograft after 2 hrs; type: ADME, organism-based; conditions: read-out: Drug uptake
[40] = Partition coefficient, log P of the compound; type: physicochemical; conditions: octanol/water

tissue uptake at 0.5 h [1]: 3.32 %ID/g | tissue uptake at 0.5 h [2]: 5.9 %ID/g | tissue uptake at 0.5 h [3]: 2.73 %ID/g | tissue uptake at 0.5 h [4]: 3.69 %ID/g | tissue uptake at 0.5 h [5]: 1.81 %ID/g | tissue uptake at 0.5 h [6]: 8.8 %ID/g | tissue uptake at 0.5 h [7]: 2.24 %ID/g | tissue uptake at 0.5 h [8]: 0.51 %ID/g | tissue uptake at 0.5 h [9]: 1.53 %ID/g | tissue uptake at 0.5 h [10]: 0.11 %ID/g | tissue uptake at 0.5 h [11]: 0.9 %ID/g | Ratio [12]: 0.47 | Ratio [13]: 3.2 | tissue uptake at 2 h [14]: 2.22 %ID/g | tissue uptake at 2 h [15]: 1.48 %ID/g | tissue uptake at 2 h [16]: 3.17 %ID/g | tissue uptake at 2 h [17]: 1.36 %ID/g | tissue uptake at 2 h [18]: 10.8 %ID/g | tissue uptake at 2 h [19]: 4.07 %ID/g | tissue uptake at 2 h [20]: 0.45 %ID/g | tissue uptake at 2 h [21]: 1.25 %ID/g | tissue uptake at 2 h [22]: 0.07 %ID/g | tissue uptake at 2 h [23]: 0.57 %ID/g | Kp at 2 h [24]: 0.59 | Ratio [25]: 2.85 | tissue uptake at 4 h [26]: 1.29 %ID/g | tissue uptake at 4 h [27]: 0.98 %ID/g | tissue uptake at 4 h [28]: 4.18 %ID/g | tissue uptake at 4 h [29]: 1.41 %ID/g | tissue uptake at 4 h [30]: 1.6 %ID/g | tissue uptake at 4 h [31]: 13.2 %ID/g | tissue uptake at 4 h [32]: 1.29 %ID/g | tissue uptake at 4 h [33]: 0.33 %ID/g | tissue uptake at 4 h [34]: 1.06 %ID/g | tissue uptake at 4 h [35]: 0.04 %ID/g | tissue uptake at 4 h [36]: 0.38 %ID/g | Ratio [37]: 0.82 | Ratio [38]: 3.29 | tissue uptake at 2 h [39]: 4.75 %ID/g | logP [40]: -2.92
Structure (SMILES): CSCC(=O)NC1[C@H](O)O[C@H](CO)[C@@H](O)[C@@H]1O (stereo not given in full)
